Experimental data reported in patent publication US20040019022A1, “Use of 2,3 alkylcarbonyloxybenzoic acids, derivatives and analogues therefrom in the treatment of tissue and cellular dysfunction, damage and injury in mammals” (priority 2002, published 2004).

How the values were obtained:
[1] = system: guinea pigs administered aerosolized LPS; assay: Aerosolized LPS exposure in guinea pigs, bronchoalveolar lavage (BAL) 24 h after LPS; assay type: in vivo; conditions: guinea pig
Procedure: The potential therapeutic effect of 2,3-alkylcarbonyloxybenzoic acids is exemplified by data generated in the study of 2,3-diacetoxybenzoic acid in guinea pigs. 2,3-diacetoxybenzoic acid was administered via intra-peritoneal injection to guinea pigs administered aerosolized LPS. Each animal was treated with 150 mg/kg of 2,3-diacetoxybenzoic acid or vehicle 1 hour prior to and 4 hours following LPS administration. Twenty four hours following administration of LPS, bronchoalveolar lavage (BAL) was performed. Intra-peritoneal administration of 2,3-diacetoxybenzoic acid appeared to have no effect on LPS-induced neutrophil recruitment into the lung. However, 2,3-diacetoxybenzoic acid treatment did produce a statistically significant reduction in albumin leakage (44%), a component of LPS-induced edema formation indicating a decrease in lung vascular permeability.

[2] = system: rat model of cecal ligation and perforation (CLP)-induced sepsis; assay: Awake rat model of cecal ligation and perforation (CLP)-induced sepsis, acute lung injury; assay type: in vivo
Source text: An awake rat model of cecal ligation and perforation (CLP)-induced sepsis was employed to examine the therapeutic effect of 2,3-diacetoxybenzoic acid in sepsis induced acute lung injury. Oxidative stress resulting in increased lung permeability is characteristic of the onset and progression of acute lung injury in this model. […] 2,3-Diacetoxybenzoic acid treated animals appeared to have improvement in sepsis-associated symptoms such as lethargy, diarrhea, anorexia, and abdomenal distention.

[3] = 150 mg/kg i.p. 1 h prior to and 4 h post LPS, BAL 24 h after LPS, mean ± SEM, n = 5
[4] = 2.5 mg/kg/h continuous infusion
[5] = 2.5 mg/kg/h continuous infusion from 1 h to 24 h after induction of sepsis, 24 hours, mean ± SEM

CC(=O)Oc1cccc(C(=O)O)c1OC(C)=O [DABA, 2,3-diacetoxybenzoic acid]
effect on LPS-induced neutrophil recruitment into the lung ([1]; 150 mg/kg i.p. 1 h prior to and 4 h following LPS): no effect | reduction in albumin leakage ([1]; 150 mg/kg i.p. 1 h prior to and 4 h following LPS, versus vehicle, statistically significant): 44% | Albumin (BAL fluid) [1, 3]: 605 ± 78 μg/mL BALF | Neutrophil (BAL fluid) [1, 3]: 80 ± 11 ×10^6/mL BALF | Total Cell (BAL fluid) [1, 3]: 112 ± 14 ×10^6/mL BALF | body temperature [2, 4]: normalized | cardiac output [2, 4]: normalized | respiratory rate [2, 4]: normalized | sepsis-associated symptoms such as lethargy, diarrhea, anorexia, and abdomenal distention [2, 4]: improvement | lung microvascular permeability increases ([2]; 2.5 mg/kg/h continuous infusion from 1 h to 24 h after induction of sepsis): reduced | Systemic WBC, 1 hour ([2]; 2.5 mg/kg/h continuous infusion from 1 h to 24 h after induction of sepsis, 1 hour, mean ± SEM): 6.7 ± 1.1 ×10^9/liter | BAL WBC, 24 hours [2, 5]: 0.04 ± 0.02 ×10^9/liter | BAL protein, 24 hours [2, 5]: 1.45 ± 1.73 mg/dL | Systemic WBC, 24 hours [2, 5]: 3.6 ± 1.4 ×10^9/liter
